According to patent publication US7157241B2, “Serine protease genes related to DPPIV” (Ferring BV, priority 2000, dated 2007):
Square brackets hold non-standard residues; d marks the D form. Peptide text beside a SMILES is read from it. * marks the point of attachment. Sta = CC(C)C[C@H](N)[C@@H](O)CC(=O)O; pNA = O=[N+]([O-])c1ccc(N*)cc1; AMC = Cc1cc(=O)oc2cc(N*)ccc12; Isovaleryl = CC(C)CC(=O)*

Columns and labels:
Format in all cases: biochemical
DPRP-2 [1] = target: T1, DPRP-2 (Homo sapiens, UniProt Q86TI2); assay: Inhibition of DPRP-2 by protease inhibitors (Ala-Pro-AMC fluorescence); conditions: for Residual activity (% of control) DPRP-2: preincubated 30 min at room temperature, Ala-Pro-AMC 100 μM
T1 construct: DNA fragments encoding the full length polypeptide DPRP-2 were amplified using PCR oligonucleotide primers; made in house; host or cells: PEAK or COS-1 cells, transient transfection
Experimental: (§1) The kinetic properties of recombinant DPRP-1 and DPRP-2 were determined in a continuous fluorimetric assay. Buffer, pH and temperature dependence optimization led to the following assay conditions: Enzyme assays were performed in 50 mM PBS, pH7.4 50 μl (50 μg/ml) of purified enzymes were mixed with 1 μl of different concentration of Ala-Pro-AMC (Enzyme Systems). Plates were then incubated at 37° C. for 30 min, and fluorescence was detected using a Wallac 1420 Fluorimeter with λex40355 and λem535.
(§2) The two purified proteases and DPPIV were preincubated with inhibitors at room temperature for 30 min. Substrate, Ala-Pro-AMC (100 μM), was then added, and the fluorescence intensity was recorded as 60 readings during a 60 min period.

DPPIV [2] = target: T2, DPPIV (Homo sapiens, UniProt P27487); assay: Inhibition of DPPIV by protease inhibitors (Ala-Pro-AMC fluorescence); conditions: for Residual activity (% of control) DPPIV: preincubated 30 min at room temperature, Ala-Pro-AMC 100 μM
Experimental: as §1, §2

DPRP-1 [3] = target: T3, DPRP-1 (Homo sapiens, UniProt Q6V1X1); assay: Inhibition of DPRP-1 by protease inhibitors (Ala-Pro-AMC fluorescence); conditions: for Residual activity (% of control) DPRP-1: preincubated 30 min at room temperature, Ala-Pro-AMC 100 μM
T3 construct: DNA fragments encoding the full-length polypeptide DPRP-1 were amplified using PCR oligonucleotide primers; made in house; host or cells: PEAK or COS-1 cells, transient transfection
Experimental: as §1, §2

DPRP-2 [4] = target: T1, DPRP-2; assay: Substrate specificity, DPRP-2; conditions: substrate 125 μM, 30-minute incubation with enzyme
Experimental: (§3) In addition to Ala-Pro-AMC, additional substrates tested also confirmed that DPRP-1 and DPRP-2 are dipeptidyl peptidases. The data were derived by determining the fluorescence change following a 30-minute incubation of the substrates (125 μM) with enzymes as a percentage of the fluorescence measured at Ala-Pro-AMC and Gly-Pro-AMC were the only good substrates among those tested.

DPRP-1 [5] = target: T3, DPRP-1; assay: Substrate specificity, DPRP-1; conditions: substrate 125 μM, 30-minute incubation with enzyme
Experimental: as §3

DPPIV [6] = target: T2, DPPIV; assay: Substrate specificity, DPPIV; conditions: substrate 125 μM, 30-minute incubation with enzyme
Experimental: as §3

DPRP-1 [7] = target: T3, DPRP-1; assay: Continuous fluorimetric assay, kinetic properties of recombinant DPRP-1; conditions: substrate Ala-Pro-AMC; 50 mM PBS, pH7.4, 37° C., 30 min
Experimental: as §1

DPRP-2 [8] = target: T1, DPRP-2; assay: Continuous fluorimetric assay, kinetic properties of recombinant DPRP-2; conditions: substrate Ala-Pro-AMC; 50 mM PBS, pH7.4, 37° C., 30 min
Experimental: as §1

[9] = protease inhibitor panel of Table 5

T3 sequence (Q6V1X1 17-898): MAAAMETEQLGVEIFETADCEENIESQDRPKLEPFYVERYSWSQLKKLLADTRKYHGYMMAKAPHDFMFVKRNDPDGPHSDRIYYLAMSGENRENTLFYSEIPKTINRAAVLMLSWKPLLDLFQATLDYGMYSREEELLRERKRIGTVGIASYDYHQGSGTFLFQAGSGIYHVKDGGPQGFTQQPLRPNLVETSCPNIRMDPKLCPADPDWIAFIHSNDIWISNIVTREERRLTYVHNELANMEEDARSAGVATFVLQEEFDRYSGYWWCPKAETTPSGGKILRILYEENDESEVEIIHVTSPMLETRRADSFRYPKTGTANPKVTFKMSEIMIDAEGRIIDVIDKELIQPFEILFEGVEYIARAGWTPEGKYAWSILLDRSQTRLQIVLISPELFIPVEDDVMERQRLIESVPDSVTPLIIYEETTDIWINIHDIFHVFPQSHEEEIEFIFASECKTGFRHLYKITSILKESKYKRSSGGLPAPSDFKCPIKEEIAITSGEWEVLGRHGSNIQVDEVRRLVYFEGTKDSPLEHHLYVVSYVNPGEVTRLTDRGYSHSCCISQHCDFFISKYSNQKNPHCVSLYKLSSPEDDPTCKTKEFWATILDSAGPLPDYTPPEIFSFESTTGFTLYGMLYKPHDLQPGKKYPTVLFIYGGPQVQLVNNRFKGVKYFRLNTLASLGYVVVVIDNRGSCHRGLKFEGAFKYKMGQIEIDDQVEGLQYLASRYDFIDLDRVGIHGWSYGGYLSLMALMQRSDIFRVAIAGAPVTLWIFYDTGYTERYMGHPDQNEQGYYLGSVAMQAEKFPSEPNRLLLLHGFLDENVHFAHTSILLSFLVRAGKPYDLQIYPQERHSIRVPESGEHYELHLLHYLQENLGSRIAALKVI
T1 sequence (Q86TI2 whole entry, the tested form may be a part): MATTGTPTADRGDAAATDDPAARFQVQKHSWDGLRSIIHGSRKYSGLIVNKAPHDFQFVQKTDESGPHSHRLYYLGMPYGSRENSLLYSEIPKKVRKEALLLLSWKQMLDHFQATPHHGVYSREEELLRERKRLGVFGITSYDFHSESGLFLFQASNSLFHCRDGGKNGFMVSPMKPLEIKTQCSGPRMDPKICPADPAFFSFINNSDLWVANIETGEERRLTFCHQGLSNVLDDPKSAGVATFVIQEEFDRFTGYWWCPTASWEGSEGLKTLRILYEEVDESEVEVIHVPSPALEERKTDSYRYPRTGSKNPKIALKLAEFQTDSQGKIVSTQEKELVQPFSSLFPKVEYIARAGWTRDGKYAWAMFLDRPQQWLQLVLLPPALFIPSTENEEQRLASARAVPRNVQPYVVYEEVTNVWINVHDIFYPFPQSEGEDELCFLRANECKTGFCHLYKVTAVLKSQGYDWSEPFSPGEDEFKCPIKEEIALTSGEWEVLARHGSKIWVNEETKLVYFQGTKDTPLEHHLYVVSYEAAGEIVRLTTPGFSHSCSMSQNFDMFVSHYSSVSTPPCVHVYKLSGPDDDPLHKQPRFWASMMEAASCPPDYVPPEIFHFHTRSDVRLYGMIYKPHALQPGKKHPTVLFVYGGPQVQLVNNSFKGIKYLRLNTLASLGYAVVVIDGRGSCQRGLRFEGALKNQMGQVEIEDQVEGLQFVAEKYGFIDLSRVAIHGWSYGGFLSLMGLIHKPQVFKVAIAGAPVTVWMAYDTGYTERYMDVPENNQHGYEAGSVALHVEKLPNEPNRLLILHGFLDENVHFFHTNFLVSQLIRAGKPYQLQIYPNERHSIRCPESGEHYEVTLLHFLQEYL
T2 sequence (P27487 whole entry): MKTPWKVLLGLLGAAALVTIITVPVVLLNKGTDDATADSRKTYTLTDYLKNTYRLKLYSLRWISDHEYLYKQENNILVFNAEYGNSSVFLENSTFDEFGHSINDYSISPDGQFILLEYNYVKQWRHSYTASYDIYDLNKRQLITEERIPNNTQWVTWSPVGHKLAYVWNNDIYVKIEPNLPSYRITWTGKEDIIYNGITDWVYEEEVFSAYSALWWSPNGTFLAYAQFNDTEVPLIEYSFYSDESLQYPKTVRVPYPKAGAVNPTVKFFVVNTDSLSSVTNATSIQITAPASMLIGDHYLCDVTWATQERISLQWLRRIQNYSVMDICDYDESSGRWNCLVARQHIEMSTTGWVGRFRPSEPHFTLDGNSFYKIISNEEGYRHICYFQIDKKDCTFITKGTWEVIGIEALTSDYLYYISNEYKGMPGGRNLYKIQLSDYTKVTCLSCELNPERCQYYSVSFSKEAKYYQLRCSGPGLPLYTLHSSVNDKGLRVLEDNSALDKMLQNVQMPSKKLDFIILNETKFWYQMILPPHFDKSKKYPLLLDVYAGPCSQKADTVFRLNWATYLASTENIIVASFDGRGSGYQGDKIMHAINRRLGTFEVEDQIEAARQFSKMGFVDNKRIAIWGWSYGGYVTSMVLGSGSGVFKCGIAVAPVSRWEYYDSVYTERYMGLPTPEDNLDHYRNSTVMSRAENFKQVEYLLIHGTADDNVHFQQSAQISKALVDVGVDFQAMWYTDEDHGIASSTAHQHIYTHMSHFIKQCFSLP

NCCc1ccc(S(=O)(=O)F)cc1 [AEBSF]
Residual activity (% of control) DPRP-2 (DPRP-2 [1]; inhibitor 5 mM): 23.9 % of control | Inhibition of DPRP-2 (in words) (DPRP-2 [1]; [9]): strong inhibition | Residual activity (% of control) DPPIV (DPPIV [2]; inhibitor 5 mM): 21.1 % of control | Inhibition of DPPIV (in words) (DPPIV [2]; [9]): strong inhibition | Residual activity (% of control) DPRP-1 (DPRP-1 [3]; inhibitor 5 mM): 29.6 % of control | Inhibition of DPRP-1 (in words) (DPRP-1 [3]; [9]): strong inhibition

C[C@H](N)C(=O)N[C@@H](Cc1ccccc1)C(=O)N1CCC[C@H]1C(=O)Nc1ccc([N+](=O)[O-])cc1 [Ala-Phe-Pro-pNA] (H-Ala-Phe-Pro-pNA)
% Change in Fluorescence at 30 minutes DPRP-2 (DPRP-2 [4]): −0.5% | % Change in Fluorescence at 30 minutes DPRP-1 (DPRP-1 [5]): −4% | % Change in Fluorescence at 30 minutes DPPIV (DPPIV [6]): 2.0%

Cc1cc(=O)oc2cc(NC(=O)[C@@H]3CCCN3C(=O)[C@H](C)N)ccc12 [Ala-Pro-AMC] (H-Ala-Pro-{AMC})
% Change in Fluorescence at 30 minutes DPRP-2 (DPRP-2 [4]): 127.5% | % Change in Fluorescence at 30 minutes DPRP-1 (DPRP-1 [5]): 239.0% | Km (DPRP-1 [7]): 208 µM | Km (DPRP-2 [8]): 161 µM | % Change in Fluorescence at 30 minutes DPPIV (DPPIV [6]): 379.0%

C[C@H](N)C(=O)N1CCC[C@H]1C(=O)Nc1ccc([N+](=O)[O-])cc1 [Ala-Pro-pNA] (H-Ala-Pro-pNA)
% Change in Fluorescence at 30 minutes DPRP-2 (DPRP-2 [4]): 44.0% | % Change in Fluorescence at 30 minutes DPRP-1 (DPRP-1 [5]): 45.5% | % Change in Fluorescence at 30 minutes DPPIV (DPPIV [6]): 29.5%

OCCS [B-Mercaptoethonal]
Residual activity (% of control) DPRP-2 (DPRP-2 [1]; inhibitor 100 mM): 84.0 % of control | Residual activity (% of control) DPPIV (DPPIV [2]; inhibitor 100 mM): 98.0 % of control | Residual activity (% of control) DPRP-1 (DPRP-1 [3]; inhibitor 100 mM): 93.2 % of control

O[C@@H](CS)[C@@H](O)CS [DTT]
Residual activity (% of control) DPRP-2 (DPRP-2 [1]; inhibitor 2 mM): 94.8 % of control | Residual activity (% of control) DPPIV (DPPIV [2]; inhibitor 2 mM): 98.3 % of control | Residual activity (% of control) DPRP-1 (DPRP-1 [3]; inhibitor 2 mM): 100.1 % of control

O=C(O)CN(CCN(CC(=O)O)CC(=O)O)CC(=O)O [EDTA]
Residual activity (% of control) DPRP-2 (DPRP-2 [1]; inhibitor 2 mM): 86.0 % of control | Residual activity (% of control) DPPIV (DPPIV [2]; inhibitor 2 mM): 93.5 % of control | Residual activity (% of control) DPRP-1 (DPRP-1 [3]; inhibitor 2 mM): 91.5 % of control

NCC(=O)N[C@@H](CCCN=C(N)N)C(=O)Nc1ccc([N+](=O)[O-])cc1 [Gly-Arg-pNA] (H-Gly-Arg-pNA)
% Change in Fluorescence at 30 minutes DPRP-2 (DPRP-2 [4]): −0.5% | % Change in Fluorescence at 30 minutes DPRP-1 (DPRP-1 [5]): −4.5% | % Change in Fluorescence at 30 minutes DPPIV (DPPIV [6]): 0.0%

Cc1cc(=O)oc2cc(NC(=O)[C@@H]3CCCN3C(=O)CN)ccc12 [Gly-Pro-AMC] (H-Gly-Pro-{AMC})
% Change in Fluorescence at 30 minutes DPRP-2 (DPRP-2 [4]): 205.0% | % Change in Fluorescence at 30 minutes DPRP-1 (DPRP-1 [5]): 341.5% | % Change in Fluorescence at 30 minutes DPPIV (DPPIV [6]): 444.0%

CC(=O)N[C@@H](CC(C)C)C(=O)N[C@@H](CC(C)C)C(=O)N[C@H](C=O)CCCNC(=N)N [Leupeptin]
Residual activity (% of control) DPRP-2 (DPRP-2 [1]; inhibitor 50 μg/ml): 90.4 % of control | Residual activity (% of control) DPPIV (DPPIV [2]; inhibitor 50 μg/ml): 90.7 % of control | Residual activity (% of control) DPRP-1 (DPRP-1 [3]; inhibitor 50 μg/ml): 91.1 % of control

C[C@H](NC(=O)[C@@H](N)CCCCN)C(=O)Nc1ccc([N+](=O)[O-])cc1 [Lys-Ala-pNA] (H-Lys-Ala-pNA)
% Change in Fluorescence at 30 minutes DPRP-2 (DPRP-2 [4]): 0.5% | % Change in Fluorescence at 30 minutes DPRP-1 (DPRP-1 [5]): 2.5% | % Change in Fluorescence at 30 minutes DPPIV (DPPIV [6]): 0.5%

CC(C)CC(=O)N[C@H](C(=O)N[C@H](C(=O)N[C@@H](CC(C)C)[C@@H](O)CC(=O)N[C@@H](C)C(=O)N[C@@H](CC(C)C)[C@@H](O)CC(=O)O)C(C)C)C(C)C [Pepstatin] (Isovaleryl-VV[Sta]A[Sta]-OH)
Residual activity (% of control) DPRP-2 (DPRP-2 [1]; inhibitor 2 μg/ml): 95.0 % of control | Residual activity (% of control) DPPIV (DPPIV [2]; inhibitor 2 μg/ml): 93.5 % of control | Residual activity (% of control) DPRP-1 (DPRP-1 [3]; inhibitor 2 μg/ml): 97.3 % of control

O=C(Nc1ccc([N+](=O)[O-])cc1)[C@@H]1CCCN1 [Pro-pNA]
% Change in Fluorescence at 30 minutes DPRP-2 (DPRP-2 [4]): −2.5% | % Change in Fluorescence at 30 minutes DPRP-1 (DPRP-1 [5]): −1% | % Change in Fluorescence at 30 minutes DPPIV (DPPIV [6]): 0.0%

Aprotinin
Residual activity (% of control) DPRP-2 (DPRP-2 [1]; inhibitor 5 μg/ml): 63.2 % of control | Residual activity (% of control) DPPIV (DPPIV [2]; inhibitor 5 μg/ml): 80.2 % of control | Residual activity (% of control) DPRP-1 (DPRP-1 [3]; inhibitor 5 μg/ml): 77.5 % of control
